Two compounds from EP1228058B1, “BENZOPYRANYL GUANIDINE DERIVATIVES, PROCESS FOR PREPARATION THEREOF, AND PHARMACEUTICAL COMPOSITIONS CONTAINING THEM” (Dongbu Hannong Chemical Co., Ltd., priority 1999, dated 2001) can be followed below.

By inhibition is commonly meant the drop in the measured response relative to a control, in per cent.

In one data set the test system is A7r5. The data set can be described thus: Inhibition of intracellular ROS induced by H2O2 (H2DCFDA) in A7r5. It is filed as cell-based. As to conditions: Rattus norvegicus. The method, then: (§1) Measurement of intracellular ROS (Reactive Oxygen Species) was determined using H2DCFDA (2',7'-dichlorodihydrofluorescein diacetate, Molecular Probes, Eugene, OR, USA). H2DCFDA is a non-polar compound that readily diffused into cells, where it is hydrolyzed by intracellular esterase to polar derivative H2DCF (2',7'-dichlorodihydrofluorescein) which can not cross the cell membrane, and thereby trapped within the cell. H2DCF is low-fluorescent, but converted to high-fluorescent DCF (2',7'-dichlorofluorescein) by intracellular ROS. Therefore, the intracellular ROS formation can be determined from the amount of converted DCF. HUVEC (Human umbilical Vascular Endothelial Cells) or A7r5 (Rat thoracic aorta smooth muscle cells) were used. HUVEC were cultured in Kaighn's F12K medium supplemented with 10% heat-inactivated FBS, 0.1 mg/ml heparin sodium, 0.03-0.05 mg/ml ECGS (Endothelial cell growth supplement) and 1% antibiotics, and A7r5 were cultured in DMEM supplemented with 10% heat inactivated FBS and 1% antibiotics. To measure the intracellular ROS, HUVEC or A7r5 were preincubated for 30 min in the presence of test compounds (10^-7-10^-5 M). Thereafter, cells were stimulated with H2O2 (10^-6 and 10^-5 M for 20 min), and then incubated in the dark for 2 hr at 37 °C in 50 mM phosphate buffer (pH 7.4) containing 5 uM H2DCFDA. The quantity of DCF fluorescence (485 nm excitation, 530 nm emission) was measured using Fluorescence plate reader (FL600, Biotek Instruments).

Data set [1] has as its system brain ischemia-reperfusion in Sprague-Dawley rats. Kind of data set: Protection against brain damage induced by brain ischemia-reperfusion. The method, then:
Male Sprague-Dawley rats (350±50 g, SamYook Experimental Animals Co., Korea) were anesthetized by the injection of pentobarbital sodium at a dose of 40 mg/kg, after which the femoral vein and the artery were cannulated with PE-10 while the left carotid artery was exposed. Five min. before the operation, 20 ug/kg of heparin sulfate was injected into the peritoneal cavity. For the continuous measurement of arterial pressure, with a insertion of a blood pressure measuring device into the femoral artery. About 10 ml of blood was taken from the femoral vein to reduce the blood pressure down to 30 mmHg. If the blood pressure is not reduced to less than 100 mmHg with a withdrawal of 7 ml of blood, the rats are considered to have high sympathetic tone.
While the blood pressure was maintained at 30 mmHg, the exposed left carotid artery was occluded for 20 min by an aneurysm clamp to cause cerebral ischemia. Then, the carotid clamps were removed and the extracted blood was reinfused. To minimize the systemic acidosis, the rats were reinfused with 5 ml of saline containing 0.84% bicarbonate sodium (bicarbonate saline). During operation and restoration period, body temperature was maintained at 37±0.5 °C with the aid of a thermal blanket and incandescent light bulbs. During their restoration from the operation, the body temperature was kept constant for 2 hours or more. […]
24 hours after the operation, the rats were sacrificed with a scaffold and the brain was removed rapidly (3 min). […] After photographs were taken of the stained sections, developed and printed, the percentages of the infarcted brain areas to the total brain were measured and analyzed using an image analyzing program (Image-Pro Plus ver. 3.0.1). […]
The protective effects of the test compounds on the brain damage caused by brain ischemia-reperfusion were expressed as a reduction percentages of infarcted brain areas compared with those of the control group.

Data set [2] in a line: ORAC (oxygen-radical absorbance capacity) assay. It is filed as biochemical. As to conditions: 1 ORAC unit = net protection by 1 uM Trolox. The method, then:
The method utilized β-PE (β-phycoerythrin) as an indicator protein, and AAPH (2,2'-azobis(2-amidinopropane) dihydrochloride) as a peroxy radical generator. Reaction mixtures consisted of test compounds (10^-6M and 10^-4M), β-PE (1.76 x 10^-8M), and AAPH (3 x 10^-3 M) in 75 mM phosphate buffer (pH 7.0). A final volume of 2 ml was used in 24 well plates. Test compounds were first dissolved in acetone and then added to the reaction mixture. Once AAPH was added, the reaction was initiated at 37 °C and the fluorescence (485 nm excitation, 590 nm emission) was measured every 5 min using Fluorescence reader (FL600, Biotek Instrument). The ORAC units were calculated based on the area under the fluorescence curve of β-PE in the presence of the test compound compared to the area generated by 1 uM Trolox. 1 ORAC unit represents the net protection provided by 1 uM Trolox.

The subject of a further data set is HUVEC. The data set can be described thus: Inhibition of intracellular ROS induced by H2O2 (H2DCFDA) in HUVEC. It is filed as cell-based, Human. Conditions: Homo sapiens; for inhibition at 10 µM: Conc. 10^-5 M; for inhibition at 1 µM: Conc. 10^-6 M; for inhibition at 0.1 µM: Conc. 10^-7 M. The method, then:
as §1

The next data set has as its system ischemic retinal cells. The data set can be described thus: Protection of ischemic retinal cells (raised intraocular pressure). As to conditions: vitreous injection 30 min before ischemia. It is filed as in vivo, rats. As for the experimental part: Test compounds were dissolved in DMSO to prepare stock solution (100 mM), which was diluted with physiological saline to the concentration of 100, 50 and 30 uM. Test compounds were administered by vitreous injection before 30 min of ischemia.
Adult rats were anaesthetized with ip (intra peritoneum) injection of chloral hydrate (400 mg/Kg), then the right eyes were treated with 1% tropicamide to dilate the pupils. The intraocular pressure (IOP) was raised to 160-180 mmHg, higher than normal blood pressure (140 mmHg), by cannulation of the anterior chamber connected to hydrostatic pressure device. Interruption of blood flow was confirmed ophthalmoscopically, the elevated IOP was maintained for 30 min. After 30 min of ischemia, both eyes were enucleated, and the retina was separated, of which cellular damage was observed. Number of cells in ganglion cell layer (250 x 25 um) and innernuclear layer (150 x 25 um) were counted, then calculated as a % of living cells compared to those of non-operated left eyes as a normal control.

Setting [3] is: read-out: Inhibition (%) H2O2 (10^-5M).
[4] abbreviates: read-out: Inhibition (%) H2O2 (10^-6M).

Several values for one entry are separate records, joined by “and”; a condition that tells them apart may be missing. Equal entries are not always repeated. Where two headings read alike, the source gives them in different places.

With `COC(OC)[C@@]1(C)Oc2ccc([N+](=O)[O-])cc2[C@H](NC(=NC#N)NCc2ccccc2)[C@H]1O` [Example 24, (2S, 3R, 4S)-N''-cyano-N-(6-nitro-3,4-dihydro-3-hydroxy-2-methyl-2-dimethoxymethyl-2H-benzopyran-4-yl)-N'-benzylguanidine], the inhibition at 10 µM in the data set on A7r5 (A7r5, Conc. 10^-5 M, read-out: Inhibition (%) H2O2 (10^-6M)) worked out at 185%. In addition, the inhibition at 1 µM in the data set on A7r5 (A7r5, Conc. 10^-6 M) turned out to be 111%. In addition, in the data set with A7r5 (A7r5, Conc. 10^-7 M, read-out: Inhibition (%) H2O2 (10^-6M)), the inhibition at 0.1 µM is 72%.

As to `COC(OC)[C@@]1(C)Oc2ccc(N)cc2[C@@H](NC(=NC#N)NCc2ccccc2)[C@@H]1O` [Example 40, (2S, 3S, 4R)-N''-cyano-N-(6 - amino-3,4-dihydro-3-hydroxy-2-methyl-2-dimethoxymethyl-2H-benzopyran-4-yl)-N'-benzylguanidine], in data set [1] (Dose 30 mg/kg, compared with the control group), the “Infarction Area Reduction(%)” value was 42.0%. For the same compound, the “Infarction Area Mean±SD(%)” value in data set [1] (Dose 30 mg/kg, peritoneally, 30 min before and 2, 4, 16 hours after occlusion) was 23.0% and 23.0 ± 3.3%. Besides, the side effects entry in data set [1] (rat, in vivo, 30 mg/kg) is on record as “did not suffer from any side effects”. The ORAC units turned out to be 3.250 ORAC units in data set [2] (Conc. 10^-4 M) and 2.047 ORAC units in data set [2] (Conc. 10^-6 M). Moreover, the inhibition at 10 µM with HUVEC (setting [3]) is 54.9%; with HUVEC (setting [4]), 63.1%. In addition, the inhibition at 1 µM turned out to be 25.8% in the data set with HUVEC (setting [3]) and 46.1% with HUVEC (setting [4]). Besides, the figures for the inhibition at 0.1 µM with HUVEC (setting [3]) and in the data set with HUVEC (setting [4]) were 12% and 17.6%, respectively. For the same compound, the “Living cell (%) Ganglion Cell layer” value in the data set on ischemic retinal cells (30 uM) is reported as 40.7%; with ischemic retinal cells (50 uM), 60.2%; in the data set with ischemic retinal cells (100 uM), 77.9%. Also, the “Living cell (%) Innernuclear layer” value with ischemic retinal cells (30 uM) is given as 54.8%; with ischemic retinal cells (50 uM), 69.8%; in the data set with ischemic retinal cells (100 uM), 82.6%.
